Earlier results, collected in US7625920B2, “Fluorinated 4-azasteroid derivatives as androgen receptor modulators” (priority 2003, dated 2009).

Columns and labels:
[1] = after 7 years of treatment
[2] = median of 22 months of treatment

Compound	increase in spinal BMD [1] [%]	reduction in nonvertebral fractures [2] [%]	reduction in spine fractures [2] [%]
NCCCC(O)(P(=O)([O-])O)P(=O)(O)O.O.O.O.[Na+] [alendronate, (4-amino-1-hydroxybutylidene)-bis-phosphonate monosodium trihydrate]	11		
hPTH(1-34): human parathyroid hormone 1-34 fragment (SVSEIQLMHNLGKHLNSMERVEWLRKKLQDVHNF; Parathyroid hormone; UniProt P01270 32-65, looked up, fragment)		54	≥ 65
